In patent US20210094933A1, “RAPAFUCIN DERIVATIVE COMPOUNDS AND METHODS OF USE THEREOF” (The Johns Hopkins University, priority 2019, published 2021):

Legend:
Type in all cases: cell-based
[1] = Nucleoside uptake assay, single concentration (Rel.Uptake), response relative to DMSO; cell line indicated in each table
Procedure: (§1) Nucleoside Uptake Assay (uptake). Nuceloside uptake assays were performed with using 3H-Thymidine as described in Guo et al. (2018) Nat. Chem, 11:254-63. Specific cell lines are indicated in each assay and cultured in complete growth media. Activity is scored according to the IC50 values relative to DMSO control. “Low” indicates an IC50 greater than 600 nM, “Medium” indicates an IC50 between 300 nM and 600 nM “High” indicates an IC50 less than 300 nM. “Rel.Uptake” refers to uptake activity characterization relative to a single concentration assay. “Low” indicates a response greater than 0.6 times the activity relative to DMSO, “Medium” indicates a response between 0.6 and 0.3 times the activity relative to DMSO, “High” indicates a response less than 0.3 times the activity relative to DMSO.

[2] = test system: 293T; test: Nucleoside uptake assay (3H-Thymidine), IC50 relative to DMSO control; details: 293T cells
Procedure: as §1

[3] = test system: H929; test: Cell proliferation assay (Prolif.), IC50 relative to DMSO control; details: H929 cells; class relative to DMSO control
Procedure: (§2) Cell Proliferation Assay (Prolif.) Guo et al. (2018) Nat. Chem. 11:254-63. Specific cell lines are indicated in each assay and cultured in complete growth media. Activity is scored according to the IC50 values relative to DMSO control. “Low” indicates an IC50 greater than 600 nM, “Medium” indicates an IC50 between 300 nM and 600 nM “High” indicates an IC50 less than 300 nM. “Rel.Uptake” refers to uptake activity characterization relative to a single concentration assay. “Low” indicates a response greater than 0.6 times the activity relative to DMSO, “Medium” indicates a response between 0.6 and 0.3 times the activity relative to DMSO, “High” indicates a response less than 0.3 times the activity relative to DMSO.

[4] = Cell proliferation assay, single concentration, response relative to DMSO; cell line indicated in each table; details: NCI-H929 cells
Procedure: as §2

[5] = 293 T cells, nucleoside uptake at single concentration
[6] = 3H-Thymidine uptake, IC50 class relative to DMSO control

**Q.** Which “Rel. Uptake, 293 T” value [1, 5] does the source give for `COc1ccc(CC[C@H]2OC(=O)[C@@H]3CCCCN3C(=O)C(=O)C(C)(C)COC(=O)C=CCCN(C)C(=O)[C@H](CC(C)C)N(C)C(=O)[C@H]3CCCN3C(=O)[C@H](Cc3ccc(CNC(=O)c4ccccc4)cc3)NC(=O)[C@H](c3ccccc3)NC(=O)CCC(=O)Nc3cccc2c3)cc1OC` [Compound 1585] here?
**A.** The value was “High (“High” indicates a response less than 0.3 times the activity relative to DMSO)”.

**Q.** And the IC50 ([2]; Table 13)?
**A.** The IC50 was less than 300 nM.

**Q.** What does the source list for `COc1ccc(CC[C@H]2OC(=O)[C@@H]3CCCCN3C(=O)C(=O)C(C)(C)COC(=O)C=CCCN(C)C(=O)[C@H](CC(C)C)N(C)C(=O)[C@H]3CCCN3C(=O)[C@H](Cc3ccc(NC(=O)Cc4cccnc4)cc3)NC(=O)[C@H](c3ccccc3)NC(=O)CCC(=O)Nc3cccc2c3)cc1OC` [Compound 1589]?
**A.** Rel. Uptake, 293 T [1, 5]: Low (“Low” indicates a response greater than 0.6 times the activity relative to DMSO); IC50 ([2]; Table 13): > 600 nM

**Q.** Which “Rel. Uptake, 293 T” value ([1]; 293 T cells, single concentration) does the source give for `COc1ccc(CC[C@H]2OC(=O)[C@@H]3CCCCN3C(=O)C(=O)C(C)(C)COC(=O)C=CCCN(C)C(=O)[C@H](CC(C)C)N(C)C(=O)[C@H]3CCCN3C(=O)[C@H](Cc3ccccc3)N(C)C(=O)[C@H](CC(=O)OC(C)(C)C)NC(=O)CCC(=O)Nc3cccc2c3)cc1OC` [Compound 1088] here?
**A.** Its value is “low”.

**Q.** What about the “Uptake, 293T” value [2, 6] of the same compound?
**A.** Its value is “low”.

**Q.** Which “Rel. Uptake, 293 T” value [1, 5] does the source give for `COc1ccc(CC[C@H]2OC(=O)[C@@H]3CCCCN3C(=O)C(=O)C(C)(C)COC(=O)C=CCCN(C)C(=O)[C@H](CC(C)C)N(C)C(=O)[C@H]3CCCN3C(=O)[C@H](Cc3ccc(C(=O)Nc4cccnc4)cc3)NC(=O)[C@H](c3ccccc3)NC(=O)CCC(=O)Nc3cccc2c3)cc1OC` [Compound 1562] here?
**A.** Its value is “low”.

**Q.** What about the “Uptake, 293T” value ([2]; Table 14) of the same compound?
**A.** Its value is “low”.

**Q.** Which results are given for `COc1ccc(CC[C@H]2OC(=O)[C@@H]3CCCCN3C(=O)C(=O)C(C)(C)COC(=O)C=CCCN(C)C(=O)[C@H](CC(C)C)N(C)C(=O)[C@H]3CCCN3C(=O)[C@H](Cc3ccc(CNC(=O)Cc4ccccc4)cc3)NC(=O)[C@H](c3ccccc3)NC(=O)CCC(=O)Nc3cccc2c3)cc1OC` [Compound 1586]?
**A.** Rel. Uptake, 293 T [1, 5]: Med; Uptake, 293T ([2]; Table 13): Med

**Q.** Which results are given for `COc1ccc(CC[C@H]2OC(=O)[C@@H]3CCCCN3C(=O)C(=O)C(C)(C)CNC(=O)C=CCCN(C)C(=O)[C@H](CC(C)C)N(C)C(=O)[C@H]3CCCN3C(=O)[C@H](Cc3ccccc3)N(C)C(=O)C(c3ccccc3)NC(=O)CCC(=O)Nc3cccc2c3)cc1OC` (some centres unmarked) [Compound 1555]?
**A.** Rel. Uptake, 293 T [1, 5]: high; Uptake, 293T [2, 6]: high

**Q.** What does the source list for `COc1ccc(CC[C@H]2OC(=O)[C@@H]3CCCCN3C(=O)C(=O)C(C)(C)COC(=O)C=CCCN(C)C(=O)[C@H](CC(C)C)N(C)C(=O)[C@H]3CCCN3C(=O)[C@H](Cc3ccc(OCc4ccccc4)cc3)NC(=O)C(c3ccccc3)NC(=O)CCC(=O)Nc3cccc2c3)cc1OC` (some centres unmarked) [Compound 1082]?
**A.** Rel. Uptake, 293 T ([1]; nucleoside uptake, single concentration, 293T cells): low; Uptake, 293T [2, 6]: low

**Q.** What does the source list for `COc1ccc(CC[C@H]2OC(=O)[C@@H]3CCCCN3C(=O)C(=O)C(C)(C)COC(=O)C=CCCN(C)C(=O)[C@H](CC(C)C)N(C)C(=O)[C@H]3CCCN3C(=O)[C@H](Cc3ccc(C(=O)Nc4ccccc4)cc3)NC(=O)[C@H](c3ccccc3)NC(=O)CCC(=O)Nc3cccc2c3)cc1OC` [Compound 1559]?
**A.** Rel. Uptake, 293 T [1, 5]: medium; Uptake, 293T ([2]; Table 14): me- dium

**Q.** Which results are given for `COc1ccc(CC[C@H]2OC(=O)[C@@H]3CCCCN3C(=O)C(=O)C(C)(C)COC(=O)C=CCCN(C)C(=O)[C@@H](Cc3ccccc3)NC(=O)CN(C)C(=O)[C@@H](Cc3ccccc3)NC(=O)[C@H](Cc3ccc(OC(=O)N4CCOCC4)cc3)N(C)C(=O)COc3cccc2c3F)cc1OC` [Compound 867]?
**A.** Prolif. H929 [3]: high; Rel. Prolif., NCI-H929 [4]: low

**Q.** For `COc1ccc(CC[C@H]2OC(=O)[C@@H]3CCCCN3C(=O)C(=O)C(C)(C)COC(=O)C=CCCN(C)C(=O)[C@@H](Cc3ccccc3)NC(=O)CN(C)C(=O)[C@@H](Cc3ccccc3)NC(=O)[C@H](Cc3ccc(OC(=O)N4CCOCC4)cc3)N(C)C(=O)CCC(=O)Nc3cccc2c3)cc1OC` [Compound 869], which “Prolif. H929” value [3] is on record?
**A.** The value was “high”.

**Q.** And the “Rel. Prolif., NCI-H929” value [4]?
**A.** The value was “low”.
